Experiments:
Assay type in all cases: in vivo
[1] = tested on: male Swiss albino mice (CD-1); experiment: Psychomotor seizure test 6 Hz (44 mA); details: 0.5 h, mice
Experimental: (§1) All procedures were carried out in accordance with applicable Polish and international guidelines on the ethics of animal testing, after obtaining appropriate institutional approval. The substances were administered intraperitoneally (i.p.), in 1% aqueous solution of Tween, as single injections with a volume of 10 ml/kg, 30 minutes before the given test. Screening was performed on groups consisted of 4 mice. […] All tests were carried out based on the procedures described in the specialist literature.
In the 6 Hz test, seizures were induced by an electric stimulus of 32 mA and/or 44 mA and a frequency of 6 pulses per second. […] Before starting the test, the eye surface was gently moistened with a solution of local anesthetic (1% lidocaine solution). The study was conducted 30 minutes after intraperitoneal administration of the compounds at various doses. An electrical pulse was delivered continuously for a period of 3 seconds, followed by observation of the animal for a period of 10 seconds. During this time, immobility or stun associated with rearing, forelimb clonus, twitching of the vibrissae and Straub's tail were observed. These symptoms persist throughout the observation period, indicating the occurrence of psychomotor seizures in mice.
(§2) To perform a statistical evaluation of the results, one-way ANOVA variance analysis and Dunnett's post hoc test (multiple comparison test) were used. The value at the significance level p<0.05 was considered statistically significant.

[2] = tested on: male Swiss albino mice (CD-1); experiment: Psychomotor seizure test 6 Hz (32 mA); details: 0.5 h, mice; for ED50 6 Hz (32 mA): i.p.
Procedure, shortened: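 Compounds given i.p. in 1% aqueous Tween 30 min before a 3 s ocular stimulus (32 mA and/or 44 mA, 6 pulses/s) after lidocaine; mice normal within 10 s counted protected. ED50 from 3-4 groups of 6 mice; screening on groups of 4.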

[3] = tested on: male Swiss albino mice (CD-1); experiment: Rotarod test (motor coordination); details: i.p., 0.5 h
Experimental: as §1
Mice were trained the day before the actual experiment. They were placed individually on a 2 cm diameter rod rotating at 10 revolutions per minute (rpm). During each training session, the animals remained on the rod for 3 minutes. The experiment was carried out 30 minutes after administration of the compounds. Motor coordination was tested at the speed of the rotating bar: 10 rpm during 60 seconds. Motor impairments were defined as the inability to remain on the rotating rod for 1 min.
as §2

[4] = tested on: male Swiss albino mice (CD-1); experiment: Subcutaneous pentylenetetrazole seizure test (scPTZ); details: 0.5 h, mice
Procedure, shortened: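 Compounds given i.p. in 1% aqueous Tween 30 min before s.c. PTZ at 100 mg/kg. Mice observed 30 min for clonic seizures (whole-body clonus ≥3 s with loss of righting reflex); absence counted as protection. ED50 from 3-4 groups of 6 mice; screening in groups of 4.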

[5] = tested on: male Swiss albino mice (CD-1); experiment: Maximal electroshock seizure test (MES); details: 0.5 h, mice
Procedure, shortened: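 Seizures were induced by auricular electroshock (25 mA, 500 V, 0.2 s) 30 min after a single i.p. dose in 1% aqueous Tween, scoring hind-limb tonic extension. Animals were male Swiss CD-1 mice, 18–26 g; ED50 was estimated from 3–4 dose groups of 6.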

[6] = tested on: male white Swiss mice (CD-1); experiment: Capsaicin-induced pain model; details: 200 mg/kg i.p.
Experimental: (§3) The tests were carried out using male white Swiss mice (CD-1) weighing 18-25 g. All procedures were carried out in accordance with Polish and international guidelines on ethics of animal testing, after obtaining appropriate institutional approval. The study group consisted of 8-10 animals. The tested and reference substances were administered intraperitoneally 30 minutes before given test as suspension in 1% aqueous solution of Tween. All tests/models were carried out based on the procedures described in the specialist literature: the formalin test (Beirith, A.; Santos, A. R.; Calixto, J. B.; Rodrigues, A. L.; Creczynski-Pasa, T. B. Eur. J. Pharmacol. 1998, 345, 233-245), the model of capsaicin-induced pain (Mogilski, S.; Kubacka, M.; Redzicka, A.; Kazek, G.; Dudek, M.; Malinka, W.; Filipek, B. Pharmacol. Biochem. Behav. 2015, 133, 99-110), the model of oxaliplatin-induced neuropathic pain—von Frey test (Sałat, K.; Cios, A.; Wyska, E.; Satat, R.; Mogilski, S.; Filipek, B.; Wigȩkowski, K.; Malawska, B. Pharmacol. Biochem. Behav. 2014, 122, 173-181).
This test assesses the time of licking and/or biting the hind paw into which mice were injected subplantarly with capsaicin in an amount of 1.6 μg, dissolved in 20 μl of a mixture containing 0.9% saline and ethanol (5% of the final volume). Observation was carried out […] after capsaicin administration. Test compounds were administered intraperitoneally 30 minutes before administration of capsaicin. Inhibition of nociceptive reaction—shortening the time of licking and biting the paw was the measure of antinociceptive activity of the compound tested.
Valproic acid (VPA) was the reference compound in this test. […] Compound 6 was administered at 20 mg/kg, 30 mg/kg and 40 mg/kg. Test compounds were administered as a suspension in 1.0% Tween 80 solution. The control group consisted of mice treated with vehicle alone (1% Tween 80 solution). The nociceptive reaction time in this group was 43.29±3.21 seconds.

[7] = tested on: male white Swiss mice (CD-1); experiment: Formalin test (analgesic activity)
Experimental: as §3
The pain was induced by the subplantar injection of 20 μL of 2.5% formalin solution into the mice right hind paw. The animals were placed in separate, transparent observation chambers for a period of 30 minutes. The measured value was the total licking and biting time of the paw to which the formalin solution was injected. The nociceptive reaction time was calculated for the first 5 minutes after formalin injection (first phase of the test—acute pain) and in the 15-20, 20-25 and 25-30 minutes time intervals after its administration (second phase of the test—inflammatory pain). The observed inhibition of nociceptive reaction—reduction of paw licking and biting time, was interpreted as the analgesic effect of the compound tested. Based on the results obtained, the ED50 dose was calculated (dose that reduces the nociceptive reaction time by 50%). […] Compound 6 was administered at doses of 10 mg/kg, 20 mg/kg and 30 mg/kg.

[8] = tested on: male white Swiss mice (CD-1); experiment: Oxaliplatin-induced neuropathic pain, von Frey test; details: baseline 2.62±0.06 g, after OXPT 1.78±0.04 g
Experimental: as §3
Oxaliplatin (OXPT) was dissolved in a 5% glucose solution, followed by intraperitoneal administration to mice. A single dose of 10 mg/kg was used. Tactile and thermal (sensation of low temperature) allodynia associated with oxaliplatin-induced neuropathy are characterized by two phases. The early phase is acute and develops soon after administration of the OXPT, while the symptoms of the later (chronic) phase (associated with neurons damage), develops after a few days. Behavioral tests in mice with OXPT-induced neuropathy were carried out 7 days after its administration, i.e. in the late phase of neuropathy.
The influence of compounds tested on tactile allodynia was determined in the von Frey test. The animals were placed individually in cages with a reticulated bottom, 60 minutes before the beginning of the experiment, in order to adapt to the new environment. An electronic Von Frey apparatus (Electronic Von Frey, Bioseb, France) was used to assess the pain threshold for mechanical stimuli. The von Frey's fiber was applied to the underside of the right mouse paw with increasing pressure. […] The measurement was performed 3 times for each mouse, with at least 30 seconds between the measurements, then the results obtained were averaged. The entire study was performed 3 times: before OXPT administration to determine the baseline pain threshold; 7 days after administration of OXPT, and before administration of test compounds, to assess developing neuropathy by setting a new pain threshold; 30 minutes after administration of the compounds to determine their influence developed neuropathy.
Compound 6 was administered at doses of 10, 20 and 30 mg/kg.

Row | Compound | ED50 6 Hz (44 mA) ([1]; i.p.) [mg/kg] | 6 Hz (44 mA): number of mice protected/number of mice tested ([1]; screening, 100 mg/kg i.p.) | ED50 6 Hz (32 mA) [2] [mg/kg] | 6 Hz (32 mA): number of mice protected/number of mice tested ([2]; screening, 100 mg/kg i.p.) | TD50 [3] [mg/kg] | ED50 scPTZ ([4]; i.p.) [mg/kg] | scPTZ: number of mice protected/number of mice tested ([4]; screening, 100 mg/kg i.p.) | ED50 MES ([5]; i.p.) [mg/kg] | MES: number of mice protected/number of mice tested ([5]; screening, 100 mg/kg i.p.) | analgesic activity, capsaicin test [6] [%] | nociceptive reaction time, capsaicin test ([6]; control 43.29±3.21 seconds) [s] | ED50 ([2]; Mus musculus, ip) [mg/kg] | ED50 ([7]; Mus musculus, ip, phase II (inflammatory pain, 15-30 min), i.p., mice, read-out: ED50 in the second phase of the formalin test) [mg/kg] | analgesic activity in the first phase of the formalin test ([7]; phase I, 100, 150 and 200 mg/kg i.p.) | pain threshold, von Frey test ([8]; 50 mg/kg i.p.) [g] | pain threshold, von Frey test ([8]; 100 mg/kg i.p.) [g] | pain threshold, von Frey test ([8]; 150 mg/kg i.p.) [g]
1 | O=C(C(c1ccccc1)N1C(=O)CCC1=O)N1CCN(c2cccc(SC(F)(F)F)c2)CC1 (stereo not drawn) [Compound 12] | 57.9 | ¾ | 15.8 | 4/4 | 150.0 | >100 | 4/4 | 36.2 | 4/4 |  |  |  |  |  |  |  | 
2 | CCCC(CCC)C(=O)O [VPA, valproic acid, reference compound] |  |  | 130.6 |  |  |  |  |  |  | 42.25 | 25.00 ± 4.57 | 131 | 133 | no analgesic activity | 2.75 ± 0.06 | 3.18 ± 0.14 | 3.97 ± 0.30
